As usually defined, the Km is the substrate concentration at which the rate is half of its maximum.

Experimental findings from patent US20060275329A1 (priority 2002, published 2006) are described below.

The test system of series [1] is TcOYE. Put plainly: Electron spin resonance spectrum of the reaction product of TcOYE (radical generation). Type of series: biochemical, Trypanosoma cruzi. Particulars: JEOL X-band spectrometer. As for the experimental part: Generation of radicals as a result of one-electron reduction is determined as follows. A hundred microliter of 5 mM tris-HCl buffer (pH 7.0) containing TcOYE and a substrate candidate is displaced with argon gas for 5 minutes to make an anaerobic environment. Then, 10 mM NADPH or NADH is added to the reaction mixture and allowed to react at 25° C. or 37° C. for 3 minutes under anaerobic condition. Part of the reaction mixture is analyzed with an electron spin resonance spectrometer (JEOL X-band spectrometer) to determine the generation of radicals. The measurement conditions and analytical method are described in the paper below. It is believed that the radicals produced react with oxygen to generate superoxide anion radicals (Moreno S. N. J. et al., J. Biol. Chem. 259: 6298-6305, 1984), which kill Trypanosoma cruzi.
The semiquinone radicals reacted with oxygen and produced superoxide anion radicals, which kill the protozoa (see FIG. 8).

The subject of another series is recombinant TcOYE. Type of series: biochemical, Trypanosoma cruzi. Particulars: pH 7.
Series [2] has as its system TcOYE. Put plainly: Inhibition of the PGH2-F2α reductase activity of TcOYE. Particulars: FIG. 9. Type of series: biochemical, Trypanosoma cruzi. On the procedure:
An example of the reaction is as follows. For reaction under aerobic condition, 1 μl of 500 μM [1-14C]PGH2 solution (2.04 Gbq/mmol; acetone, DMSO or dimethylether diethylene glycol solution) is added to 100 μl of 100 mM phosphate buffer (pH 7.0) containing a NADPH production system (100 μM NADP, 100 μM glucose-6-phosphate, 1 unit of glucose-6-phosphate dehydrogenase), TcOYE and an inhibitor, and is allowed to react at 37° C. for two minutes. For reaction under anaerobic condition, after bubbling the reaction mixture with argon gas for five minutes, 100 μM NADPH or NADH and 1 μl PGH2 solution are added, and the mixture is allowed to react in argon gas at 37° C. for two minutes.
250 μl of a stop solution (diethyl ether:methanol:2M citric acid (30:4:1 mixed solution)) at −20° C. and an excess amount of anhydrous sodium sulfate are added to stop the reaction, and the remaining substrate ([1-14C]PGH2) and the enzymatic reaction product ([1-14C]PGF2α) are extracted in ether at the same time. Part (about 50 μl) of the ether layer is applied onto a silica gel thin layer (Merck & Co.) in a low-temperature room, and thin-layer chromatography (eluent:diethyl ether:methanol:acetic acid (90:2:1 mixed solution)) is performed in a refrigerated room at −20° C. After development, autoradiography of the thin layer plate is performed using the image analyzer FL2000 (Fuji Photo Film), and the substrate to product ratio is calculated to determine enzymatic activity.
The enzymatic reaction described above is conducted in the presence or absence of an inhibitor and a decrease in the reaction rate due to the inhibitor is examined to determine whether or not the reduction is inhibited. Because it is very likely that Trypanosoma cruzi uses prostaglandin to sustain parasitism in host cells, an inhibitor of TcOYE may be used to inhibit Trypanosoma cruzi parasitism in host cells.
Naphtoquinone compounds and nitro heterocyclic compounds that are reduced by TcOYE inhibit the PGH2-F2α reducing activity of TcOYE in a dose-dependent manner.

Series [3] concerns crude extract of Trypanosoma cruzi (PG synthesizing system). Put plainly: Prostaglandin production from arachidonic acid by crude extract of Trypanosoma cruzi. Type of series: biochemical. As for the experimental part:
The vegetative form (epimastigote) of Trypanosoma cruzi YNIH strain in the insect body (obtained from the National Institute of Infectious Diseases (1-23-1, Toyama, Shinjuku-ku, Tokyo)) was incubated by the conventional method (Nozaki T. et al., J. Biol. Chem. 276: 6516-6523, 2001) using synthetic culture medium. The cultured protozoa was destroyed by hyposmotic treatment and allowed to react with arachidonic acid, and the PGs produced were extracted with an organic solvent and separated/purified by HPLC.

Series [4] deals with CC1(C)CCC2=C(O1)c1ccccc1C(=O)C2=O. Put plainly: purified protein, by the assay type. Particulars: other: cofactor NADH (500 μM), argon-bubbled 0.1 M phosphate buffer pH 7.0, decrease in absorption at 340 nm.
A further series relates to CC1=CC(=O)c2ccccc2C1=O. The experiment in a line: purified protein, by the assay type. The following applies: other: cofactor NADPH (500 μM), argon-bubbled 0.1 M phosphate buffer pH 7.0, decrease in absorption at 340 nm.
Series [5] concerns O=[N+]([O-])c1cc[n+]([O-])c2ccccc12. The experiment in a line: purified protein, by the assay type. The following applies: other: cofactor NADPH (500 μM), argon-bubbled 0.1 M phosphate buffer pH 7.0, decrease in absorption at 340 nm.
The next series concerns C[n+]1c2ccccc2nc2ccccc21. Put plainly: purified protein, by the assay type. Particulars: other: cofactor NADPH (500 μM), argon-bubbled 0.1 M phosphate buffer pH 7.0, decrease in absorption at 340 nm.
For series [6], the system named is [H][C@]12C[C@]([H])(OO1)[C@H](C/C=C\CCCC(=O)O)[C@H]2/C=C/[C@@H](O)CCCCC. The experiment in a line: purified protein, by the assay type. The following applies: other: cofactor NADPH (500 μM), argon-bubbled 0.1 M phosphate buffer pH 7.0, decrease in absorption at 340 nm.
Series [7] relates to CC1CS(=O)(=O)CCN1/N=C/c1ccc([N+](=O)[O-])o1. The experiment in a line: purified protein, by the assay type. Particulars: other: cofactor NADPH (500 μM), argon-bubbled 0.1 M phosphate buffer pH 7.0, decrease in absorption at 340 nm.

Regarding “2β,6α-dimethyl-8α-(2-methyl-1-oxo-butoxy)-mevinic acid lactone [mevinolin]”, the “Type of reduction and radical production (ESR)” value in the series on TcOYE [1] is “underwent two-electron reduction and did not produce radicals”. Also, in the series on recombinant TcOYE, the “Reduction of the compound by TcOYE (substrate specificity)” value (from here on “Reduction of the compound by TcOYE”) is reported as “reduces”.
As to `O=[N+]([O-])c1cc[n+]([O-])c2ccccc12` [4-nitroquinoline-N-oxide], the “Type of reduction and radical production (ESR)” value in the series on TcOYE [1] was “underwent two-electron reduction and did not produce radicals”. For the same compound, the “Reduction of the compound by TcOYE” value in the series on recombinant TcOYE is on record as “reduces”. In addition, the “Inhibition of the PGH2-F2α reducing activity of TcOYE” value in the series with TcOYE [2] is listed as “weak”.
Turning to `CCCCC/C=C\C=C\C(=O)CCCCCCCC(=O)O` [9-oxo-10E,12Z-octadecadienoic acid], the “Reduction of the compound by TcOYE” value with recombinant TcOYE was “reduces”.
`CC/C=C\C[C@@H]1C(=O)C=C[C@@H]1CCCCCCCC(=O)O` [12-oxo-phytodienoic acid, 4-oxo-5β-(2Z-pentenyl)-2-cyclopentene-1β-octanoic acid]: in the series on recombinant TcOYE, the “Reduction of the compound by TcOYE” value was “reduces”.
With `CC(=O)Oc1ccccc1C(=O)O` [Aspirin], the “Production of PGs (PGD2, PGE2, PGF2) by crude extract” value in series [3] (3 μM Aspirin) is “unaffected”.
On to `O=C(Cn1ccnc1[N+](=O)[O-])NCc1ccccc1` [benznidazole], for which, in the series with recombinant TcOYE, the “Reduction of the compound by TcOYE” value is “did not reduce”.
Still for that read-out and setting: as for `Clc1ccc(COC(Cn2ccnc2)c2ccc(Cl)cc2Cl)cc1` (stereo not shown) [econazole], the entry is “reduces”; as for `OO` [hydrogen peroxide], “reduced”.
Regarding `COc1ccc2c(c1)c(CC(=O)O)c(C)n2C(=O)c1ccc(Cl)cc1` [indomethacin], the “Production of PGs (PGD2, PGE2, PGF2) by crude extract” value in [3] (42 μM indomethacin) is listed as “unaffected”.
On to `CC1=CC(=O)c2ccccc2C1=O` [menadion], for which the “Type of reduction and radical production (ESR)” value with TcOYE [1] is “underwent one-electron reduction and produced semiquinone radicals”. The “Reduction of the compound by TcOYE” value with recombinant TcOYE is “reduces”. Also, the “Inhibition of the PGH2-F2α reducing activity of TcOYE” value in the series on TcOYE [2] was “weak”.
For the compound `CC1CS(=O)(=O)CCN1/N=C/c1ccc([N+](=O)[O-])o1` (stereo not shown) [nifurtimox], in the series with TcOYE [1], the “Type of reduction and radical production (ESR)” value was “underwent two-electron reduction and did not produce radicals”. In addition, the “Reduction of the compound by TcOYE” value in the series on recombinant TcOYE is recorded as “reduces”. For the same compound, in the series on TcOYE [2], the “Inhibition of the PGH2-F2α reducing activity of TcOYE” value was “inhibits the activity most strongly”.
On to `C[n+]1c2ccccc2nc2ccccc21` [phenazine methosulfate, 5-methyl-phenaziummethylsulfate], for which the “Reduction of the compound by TcOYE” value with recombinant TcOYE was “reduces”.
For the compound `CC1(C)CCC2=C(O1)c1ccccc1C(=O)C2=O` [β-lapachone], the “Type of reduction and radical production (ESR)” value in the series on TcOYE [1] was “underwent one-electron reduction and produced semiquinone radicals”. Besides, in the series with recombinant TcOYE, the “Reduction of the compound by TcOYE” value is “reduces”. Besides, the “Inhibition of the PGH2-F2α reducing activity of TcOYE” value in the series on TcOYE [2] is “weak”.
As for “recombinant TcOYE (Trypanosoma cruzi old yellow enzyme, PGH2-F2α reductase, flavoprotein, SEQ ID NO: 2, 379 amino acids; expressed in E. coli BL21 from pGEX-4T-1 as fusion with glutathione transferase, recovered by thrombin treatment) (Trypanosoma cruzi)”, the Km in series [4] turned out to be 0.17 µM; with CC1=CC(=O)c2ccccc2C1=O, 0.82 µM; in series [5], 9.5 µM; with C[n+]1c2ccccc2nc2ccccc21, 10.4 µM; in series [6] it was 5.0 µM; in [7], 19.0 µM.
